Laboratory results: patent US20230346831A1, “METHODS FOR TREATING […] USING LOW DOSE CARBON MONOXIDE” (priority 2020, published 2023)

Legend:
8988T/TGL cells = experiment: orthotopic (intrasplenic) model of liver metastasis of PDAC; format: in vivo; settings: 8988T/TGL cells intrasplenic, NSG mice, 5 days a week
Description: NSG mice were generated by the Jackson Laboratory. All mice were housed in accordance with the institutional guidelines. […] Zhang, & Y. N. Du, Methods Mol Biol 1882, 309-320 (2019)). The spleen was removed after the injection. Starting one day after injection, mice were randomized into two groups. One group was kept in a regular mouse holding room (control), and the other group was put into a chamber delivering 250 ppm CO 3 hours daily. Mice were subjected to bioluminescent imaging using the In Vivo Imaging System Spectrum (PerkinElmer, Waltham, MA) at 0, 1, 3 days and then weekly after tumor cells were injected until the final time points, as described previously by Y. C. Du, D. S. Klimstra, & H. Varmus, PLoS One 4, e6932 (2009)). Luciferase signals were transformed to nature log scale before analysis. GEE method was used to test the overall difference of tumor growth over time. All analyses were performed in statistical software SAS Version 9.4 (SAS Institute, Cary, NC).
Mouse tissues were removed and fixed in 10% buffered formalin overnight at room temperature. […] Tumor number and tumor size were quantified by scanning the whole tissue slide of each mouse under microscope. The size of tumor area of each tumor was measured by the cellSens imaging software (Olympus, Tokyo, Japan). […]

[1] = system: oxygen consumption / mitochondrial respiration; experiment: Seahorse XF Cell Mito Stress Test; format: cell-based, human
Text: In particular, MDA-MB-231/TGL and MCF7/TGL/PQ cells treated with carbon monoxide met their energetic needs at the same rate as untreated control cells. […] In particular, MDA-MB-231/TGL and MCF7/TGL/PQ cells treated with carbon monoxide stimulated their mitochondrial respiratory chains at the same rate as untreated control cells.
The heme group confers functionality to multiple proteins, which can include oxygen carrying, oxygen reduction, electron transfer, and other processes. To determine whether the decrease of heme levels impacts levels of oxygen-utilizing hemoproteins and therefore reduces oxygen consumption, oxygen consumption rates (OCR) was measured. However, lower OCR after 16 hours in 250 ppm CO was not detected using Seahorse XF Cell Mito Stress Tests in MCF7 and MDA-MB-231 (data not shown).

HCP1 = experiment: quantitative real-time reverse transcription PCR; format: cell-based, human; settings: MCF7/TGL and MDA-MB-231/TGL cells; 250 ppm CO
Description: (§1) mRNA was isolated from cells (MCF7/TGL and MDA-MB-231/TGL) grown on 6-cm dishes using RNeasy mini kit (Qiagen, Hilden, Germany) containing gDNA Eliminator spin columns. cDNA was generated using the SuperScript III First-strand synthesis system with random hexamers (Invitrogen, Carlsbad, CA), and power SYBR green (Invitrogen, Carlsbad, CA)-based quantitative real-time PCR was performed using primer specific for HRG1 (human, forward: 5′- […] -3′ (SEQ ID NO: 1), reverse: 5′- […] -3′ (SEQ ID NO: 2)) or HCP1 (human forward: 5′- […] -3′ (SEQ ID NO: 3), reverse: 5′-[…] -3′ (SEQ ID NO: 4)), CYP1B1 (human, forward: 5′TGAGTGCCGTGTGTTTCGG -3′ (SEQ ID NO: 5), reverse: 5′-[…] -3′ (SEQ ID NO: 6)), SP1 (human, forward: 5′-GTGGCCGCTACCTTCACTG -3′ (SEQ ID NO: 7), reverse: 5′-GCCCCACTCCTACTTGGTC -3′ (SEQ ID NO: 8)) with the comparative CT method (ΔΔCT; ABI).
(§2) To investigate how CO reduces heme levels, whether CO decreased the transportation of heme into the cytosol was examined. […] Furthermore, heme oxygenases (HO-1, HO-2, and HO-3) cleave heme into 3 products: CO, ferrous ions (Fe2+), and biliverdin. […] Likewise, changes in protein levels of Bach 1 (a physiological repressor of HO-1 and a pro-metastatic transcription factor, whose degradation is reported to be mediated by heme in Nrf2-mutated lung cancer) was not detected (FIG. 4E). […]

HRG1 = experiment: quantitative real-time reverse transcription PCR; format: cell-based, human; settings: MCF7/TGL and MDA-MB-231/TGL cells; 250 ppm CO
Description: as §1, §2

[2] = MDA-MB-231 and MCF7 cells, low dose carbon monoxide

In the case of `[C-]#[O+]` [CO, Carbon monoxide], the “metastatic tumor numbers in liver sections (histological analysis)” value (8988T/TGL cells; 250 ppm CO 3 hours daily, 19 days after the injection) was “significantly less”, the “bioluminescence over the time course, control vs CO group” value (8988T/TGL cells; 250 ppm CO gas 3 hours daily, P < 0.0001, GEE method) was “Significant difference” and the “lower oxygen consumption rates (OCR)” value ([1]; MCF7 and MDA-MB-231, after 16 hours in 250 ppm CO, data not shown) was “not detected”. The “mitochondrial spare respiratory capacity” value ([1]; MDA-MB-231 and MCF7 cells, carbon monoxide treatment) was “improved”, the “mitochondrial ATP production” value [1, 2] was “did not affect” and the “stress-induced mitochondrial maximum respiration” value [1, 2] was “did not affect”. For the same molecule, the “HCP1 mRNA expression” value (HCP1) was “reduced” and the “HRG1 mRNA expression” value (HRG1) was “reduced”.
